Converted amounts (≈) assume the structure as drawn. Read-outs that look alike come from different tables or passages of the source.
What was measured:
[1] = test system: Staphylococcus aureus ATCC 6538; assay: serial dilution liquid medium MIC, Staphylococcus aureus ATCC 6538 Pen-Sensibles; type: cell-based; details: read-out: minimum inhibiting concentration (MIC)
Protocol: (§1) The method was a serial dilution of liquid medium test wherein a series of tubes were prepared containing the same amount of sterile nutritive medium and increasing amounts of the test product was distributed in each tube. The tubes were then seeded with a bacterial strain and incubated for 24 hours in an oven at 37° C. The degree of inhibition was determined by transillumination to determine the minimum inhibiting concentration (MIC) express in μg/ml and the results are reported in the following Tables.

[2] = test system: Staphylococcus aureus UC 1128; assay: serial dilution liquid medium MIC, Staphylococcus aureus UC 1128 pen-resistant; type: cell-based; details: read-out: minimum inhibiting concentration (MIC)
Protocol: as §1

[3] = test system: Staphylococcus aureus exp. n° 54 146; assay: serial dilution liquid medium MIC, Staphylococcus aureus exp. n° 54 146; type: cell-based; details: Staphylococcus aureus exp. 54 146; 24 hours at 37° C.; read-out: minimum inhibiting concentration (MIC)
Protocol: as §1

[4] = test system: Streptococcus pyogenes A 561; assay: serial dilution liquid medium MIC, Streptococcus pyogenes A 561; type: cell-based; details: A561, 24 hours at 37° C., read-out: minimum inhibiting concentration (MIC)
Protocol: as §1

[5] = test system: Streptococcus faecalis 5432; assay: serial dilution liquid medium MIC, Streptococcus faecalis 5432; type: cell-based; details: Enterococcus faecalis, 24 hours at 37° C., read-out: minimum inhibiting concentration (MIC)
Protocol: as §1

[6] = test system: Streptococcus faecalis 99 F 74; assay: serial dilution liquid medium MIC, Streptococcus faecalis 99 F 74; type: cell-based; details: Enterococcus faecalis, 99F74, 24 hours at 37° C., read-out: minimum inhibiting concentration (MIC)
Protocol: as §1

[7] = test system: Bacillus subtilis ATCC 6 633; assay: serial dilution liquid medium MIC, Bacillus subtilis ATCC 6 633; type: cell-based; details: ATCC6, 24 hours at 37° C., read-out: minimum inhibiting concentration (MIC)
Protocol: as §1

[8] = test system: Staphylococcus aureus No. 54,146; assay: In vivo activity in mice experimentally infected with Staphylococcus aureus No. 54,146; details: groups of 10 mice
Protocol: The test was effected with the compounds of the invention and erythromycin as a reference on groups of 10 mice weighing about 21 g experimentally infected with Staphylococcus aureus No. 54,146 by intraperitoneal administration of 0.5 ml of a 22 hour culture of the said organism in bouillon with a pH of 7 diluted to 1/6 with physiological water. The test compounds were orally administrated to the mice 1,5 and 24 hours after the infection and the mortality on the 8th day was determined.

[9] = test system: Streptococcus pyrogenes A561; assay: In vivo activity in mice experimentally infected with Streptococcus pyrogenes A561; details: groups of 10 male mice
Protocol: In a second test, groups of 10 male mice weighing about 21 g were experimentally infected by an intraperitoneal injection of 0.5 ml of a 22 hour culture of Streptococcus pyrogenes A561 in Todd Hewitt bouillon with a pH of 7 diluted to 1/1000 with physiological water. The compounds of Examples 1 or 5 were administered orally 1,5 and 24 hours after the infection and the number of mice living on the fifth day was determined.

[10] = ATCC6538, Staphylococcus aureus ATCC 6538 Pen-Sensibles, 24 hours at 37° C.
[11] = UC1128, Staphylococcus aureus UC 1128 pen-resistant, 24 hours at 37° C.
[12] = dose 0,5mg oral, 1,5 and 24 hours after infection
[13] = dose 0,75mg oral, 1,5 and 24 hours after infection
[14] = dose 1mg oral, 1,5 and 24 hours after infection
[15] = dose 0,25mg oral, 1,5 and 24 hours after infection
[16] = Staphylococcus aureus, ATCC6538, 24 h

CCOCCON=C1[C@H](C)C[C@@](C)(O)[C@H](O[C@@H]2O[C@H](C)C[C@H](N(C)C)[C@H]2O)[C@@H](C)[C@H](O[C@H]2C[C@@](C)(OC)[C@@H](O)[C@H](C)O2)[C@@H](C)C(=O)O[C@H](CC)[C@@](C)(O)[C@H](O)[C@H]1C [Example 3, 9-[0-(2-ethoxyethyl)-oxime] of erythromycin]
MIC [1, 10]: 0.5 µg/mL (≈ 0.609 µM) | MIC [2, 11]: 1 µg/mL (≈ 1.22 µM) | MIC [3]: 0.5 µg/mL (≈ 0.609 µM) | MIC [4]: 0.1 µg/mL (≈ 0.122 µM) | MIC [5]: 0.2 µg/mL (≈ 0.244 µM) | MIC [6]: 0.2 µg/mL (≈ 0.244 µM) | MIC [7]: 0.2 µg/mL (≈ 0.244 µM) | No. of mice living on the 8th day [8, 12]: 7 mice | No. of mice living on the 8th day [8, 13]: 9 mice | No. of mice living on the 8th day [8, 14]: 9 mice

CC[C@H]1OC(=O)[C@H](C)[C@@H](O[C@H]2C[C@@](C)(OC)[C@@H](O)[C@H](C)O2)[C@H](C)[C@@H](O[C@@H]2O[C@H](C)C[C@H](N(C)C)[C@H]2O)[C@](C)(O)C[C@@H](C)C(=NOCCN(C)C)[C@H](C)[C@@H](O)[C@]1(C)O [Example 5, 9-[0-(2-dimethylaminoethyl)-oxime] of erythromycin]
MIC [1, 10]: 1 µg/mL (≈ 1.22 µM) | MIC [2, 11]: 1 µg/mL (≈ 1.22 µM) | MIC [3]: 1 µg/mL (≈ 1.22 µM) | MIC [4]: ≤ 0.02 µg/mL | MIC [5]: 0.05 µg/mL (≈ 0.061 µM) | MIC [6]: 0.05 µg/mL (≈ 0.061 µM) | MIC [7]: 0.5 µg/mL (≈ 0.61 µM) | No. of mice living on the 8th day [8, 12]: 8 mice | No. of mice living on the 8th day [8, 15]: 2 mice | No. of mice living on the 8th day [8, 13]: 10 mice | No. of mice alive on 5th day ([9]; dose 0.1 mg oral, 1,5 and 24 hours after infection): 10 mice

CCOCCOCON=C1[C@H](C)C[C@@](C)(O)[C@H](O[C@@H]2O[C@H](C)C[C@H](N(C)C)[C@H]2O)[C@@H](C)[C@H](O[C@H]2C[C@@](C)(OC)[C@@H](O)[C@H](C)O2)[C@@H](C)C(=O)O[C@H](CC)[C@@](C)(O)[C@H](O)[C@H]1C [Example 4, 9-[0-(2-ethoxyethoxymethyl)-oxime] of erythromycin]
MIC [1, 10]: 2 µg/mL (≈ 2.35 µM) | MIC [2, 11]: 3 µg/mL (≈ 3.52 µM) | MIC [3]: 2 µg/mL (≈ 2.35 µM) | MIC [4]: 0.05 µg/mL (≈ 0.0587 µM) | MIC [5]: 0.5 µg/mL (≈ 0.587 µM) | MIC [6]: 0.2 µg/mL (≈ 0.235 µM) | MIC [7]: 0.5 µg/mL (≈ 0.587 µM) | No. of mice living on the 8th day [8, 12]: 4 mice | No. of mice living on the 8th day [8, 15]: 0 mice | No. of mice living on the 8th day [8, 13]: 9 mice | No. of mice living on the 8th day [8, 14]: 10 mice

CC[C@H]1OC(=O)[C@H](C)[C@@H](O[C@H]2C[C@@](C)(OC)[C@@H](O)[C@H](C)O2)[C@H](C)[C@@H](O[C@@H]2O[C@H](C)C[C@H](N(C)C)[C@H]2O)[C@](C)(O)C[C@@H](C)C(=NOCCOc2ccc(Cl)cc2)[C@H](C)[C@@H](O)[C@]1(C)O [Example 2, 9-[0-(2-{4-chlorophenoxy}-ethyl)-oxime] of erythromycin]
MIC [1, 16]: 0.1 µg/mL (≈ 0.111 µM) | MIC ([2]; Staphylococcus aureus, UC1128, 24 h): 1 µg/mL (≈ 1.11 µM) | MIC [3]: 0.5 µg/mL (≈ 0.553 µM) | MIC [4]: ≤ 0.02 µg/mL | MIC [5]: 0.1 µg/mL (≈ 0.111 µM) | MIC [6]: 0.1 µg/mL (≈ 0.111 µM) | MIC [7]: 0.2 µg/mL (≈ 0.221 µM)

CC[C@H]1OC(=O)[C@H](C)[C@@H](O[C@H]2C[C@@](C)(OC)[C@@H](O)[C@H](C)O2)[C@H](C)[C@@H](O[C@@H]2O[C@H](C)C[C@H](N(C)C)[C@H]2O)[C@](C)(O)C[C@@H](C)C(=NOCOCCOC)[C@H](C)[C@@H](O)[C@]1(C)O [Example 1, 9-[0-(2-methoxyethoxy)-methyloxime] of erythromycin]
MIC [1, 16]: 0.5 µg/mL (≈ 0.597 µM) | MIC [2, 11]: 2 µg/mL (≈ 2.39 µM) | MIC [3]: 1 µg/mL (≈ 1.19 µM) | MIC [4]: 0.05 µg/mL (≈ 0.0597 µM) | MIC [5]: 0.2 µg/mL (≈ 0.239 µM) | MIC [6]: 0.2 µg/mL (≈ 0.239 µM) | MIC [7]: 0.2 µg/mL (≈ 0.239 µM) | No. of mice living on the 8th day [8, 12]: 10 mice | No. of mice living on the 8th day [8, 15]: 7 mice | No. of mice alive on 5th day ([9]; dose 0.5 mg oral, 1,5 and 24 hours after infection): 2 mice | No. of mice alive on 5th day ([9]; dose 1 mg oral, 1,5 and 24 hours after infection): 10 mice

CC[C@H]1OC(=O)[C@H](C)[C@@H](O[C@H]2C[C@@](C)(OC)[C@@H](O)[C@H](C)O2)[C@H](C)[C@@H](O[C@@H]2O[C@H](C)C[C@H](N(C)C)[C@H]2O)[C@](C)(O)C[C@@H](C)C(=NOCOCc2ccccc2)[C@H](C)[C@@H](O)[C@]1(C)O [Example 7, 9-[0-benzyloxymethoxy-oxime] of erythromycin]
MIC [1, 16]: 0.2 µg/mL (≈ 0.23 µM) | MIC [2, 11]: 1 µg/mL (≈ 1.15 µM) | MIC [3]: 0.5 µg/mL (≈ 0.575 µM) | MIC [4]: 0.05 µg/mL (≈ 0.0575 µM) | MIC [5]: 0.1 µg/mL (≈ 0.115 µM) | MIC [6]: 0.1 µg/mL (≈ 0.115 µM) | MIC [7]: 0.1 µg/mL (≈ 0.115 µM)
